Where two headings read alike, the source gives them in different places.
How the values were obtained:
[1] = test system: RNA Polymerase II Serine 5 phosphorylation (Rpb1 CTD, downstream substrate of CDK7) in A549 cells; test: Imaging-based cellular RNA PolII Ser5 phosphorylation assay in A549 cells; assay type: cell-based, human; details: wild-type CDK7, RNA PolII Ser5 phosphorylation, averaged over all measurements; for IC50: Homo sapiens, A549, A549 cells, read-out: CDK7_A549 Wild-type CDK7 (pIC50) (converted)
Procedure, shortened: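 IC50 derived by fitting % control (DMSO high, 10 μM reference low) against concentration, with Hill slope. Readout: high-content imaging of phospho-Ser5 Rpb1 CTD antibody staining in fixed, permeabilized A549 cells exposed to compound 3 h after 20 h culture in 1% FBS DMEM.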

[2] = test system: RNA Polymerase II Serine 5 phosphorylation in A549 cells overexpressing CDK7-mutant (C312S); test: Imaging-based cellular RNA PolII Ser5 phosphorylation assay in A549 cells overexpressing CDK7-mutant (C312S); assay type: cell-based, human; details: RNA PolII Ser5 phosphorylation, averaged over all measurements; for IC50: Homo sapiens, A549, A549 cells overexpressing CDK7-mutant (C312S), read-out: CDK7_A549 mutant hCDK7(pIC50) (converted)
Procedure, shortened: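 Readout was automated imaging of anti-phospho-Ser5 Rpb1 CTD immunofluorescence, with IC50 fitted to % control versus concentration. Cells were A549 stably overexpressing non-covalently targetable CDK7 C312S alongside wild-type, exposed to compound 3 h at 37 °C. DMSO and 10 μM reference compound served as controls.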

[3] = molecular target: CDK7/cyclinH/MAT1 trimeric complex (Homo sapiens, UniProt P50613); test: In vitro CDK7 assay, potency of irreversible covalent inhibitors (kinact/KI), coupled PK/LDH ADP readout at 340 nm
Chain of CDK7/cyclinH/MAT1 trimeric complex (P50613 whole entry): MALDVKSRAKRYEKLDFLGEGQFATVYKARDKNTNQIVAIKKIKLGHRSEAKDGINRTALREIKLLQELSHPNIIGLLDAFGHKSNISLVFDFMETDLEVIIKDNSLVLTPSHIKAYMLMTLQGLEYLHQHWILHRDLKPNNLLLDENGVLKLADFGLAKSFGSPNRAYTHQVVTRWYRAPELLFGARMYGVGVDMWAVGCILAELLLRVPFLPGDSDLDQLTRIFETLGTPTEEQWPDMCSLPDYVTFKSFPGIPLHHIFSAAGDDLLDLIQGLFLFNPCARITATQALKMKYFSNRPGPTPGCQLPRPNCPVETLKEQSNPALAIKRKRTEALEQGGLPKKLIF
Chain of CDK7/cyclinH/MAT1 trimeric complex (P51946 whole entry partner): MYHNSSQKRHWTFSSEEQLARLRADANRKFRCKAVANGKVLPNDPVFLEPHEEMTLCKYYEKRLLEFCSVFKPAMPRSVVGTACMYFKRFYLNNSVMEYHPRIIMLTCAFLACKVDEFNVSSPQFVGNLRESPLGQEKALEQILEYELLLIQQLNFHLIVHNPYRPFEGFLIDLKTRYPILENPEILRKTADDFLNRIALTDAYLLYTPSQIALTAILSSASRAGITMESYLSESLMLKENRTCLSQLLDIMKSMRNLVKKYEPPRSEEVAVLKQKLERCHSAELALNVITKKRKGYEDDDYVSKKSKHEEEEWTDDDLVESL
Chain of CDK7/cyclinH/MAT1 trimeric complex (P51948 whole entry partner): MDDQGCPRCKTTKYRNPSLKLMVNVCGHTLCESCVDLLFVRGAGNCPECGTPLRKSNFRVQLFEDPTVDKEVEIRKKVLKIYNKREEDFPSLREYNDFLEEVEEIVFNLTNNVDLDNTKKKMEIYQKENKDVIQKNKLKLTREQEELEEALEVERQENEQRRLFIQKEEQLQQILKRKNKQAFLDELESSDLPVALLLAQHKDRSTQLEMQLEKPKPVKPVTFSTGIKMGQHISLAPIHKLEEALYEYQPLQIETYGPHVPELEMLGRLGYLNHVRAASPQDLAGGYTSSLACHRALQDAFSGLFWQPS

[4] = CDK7 (20 nM enz.) (KI, μM), 20 nM enzyme
[5] = read-out: CDK7 (20 nM enz.) (kinact, s^−1), 20 nM enzyme
[6] = read-out: CDK7 (20 nM enz.) (kinact/KI, M^−1*s^−1), 20 nM enzyme
[7] = CDK7 (KI(μM)), […], 1 mM ATP, room temperature, averaged values over all measurements
[8] = read-out: CDK7 (kinact, s^−1), kinact = maximal rate of inactivation, 1 mM ATP, room temperature, averaged values over all measurements
[9] = read-out: CDK7 (kinact/KI, M^−1*s^−1), potency of irreversible covalent inhibitors, 1 mM ATP, room temperature, averaged values over all measurements
[10] = read-out: CDK7 (20 nM enz.) (kobs/[I], M^−1*s^−1), 20 nM enzyme

Row | Structure (SMILES) | IC50 [1] [nM] | IC50 [2] [nM] | Ki [3, 4] [µM] | kinact [3, 5] [s⁻¹] | kinact/KI [3, 6] [M⁻¹ s⁻¹] | other results
1 | C=CC(=O)N1CC(N2CC[C@@H](c3ccc4c(c3)Nc3nccc(N5CCOCC5)c3CO4)[C@@H](O)C2)C1 (mixture of isomers) [Compound 228] | 178 | > 10000 | 0.129 | 6.25e-05 | 486 | –
2 | C=CC(=O)N1CC[C@H](N2CC(c3cc4c(c(C)n3)OCc3c(C5CCOCC5)ccnc3N4)C2)[C@H](F)C1 (mixture of isomers) [Compound 236] | 162 | 7410 | 0.084 | 3.05e-05 | 362 | –
3 | C=CC(=O)N1CC[C@H](N2CC(c3cc4c(c(C)n3)OCc3c(C5CCOCC5)ccnc3N4)C2)[C@@H](F)C1 (mixture of isomers) [Compound 242] | 316 | > 10000 | 0.129 | 2.7e-05 | 209 | –
4 | CC#CC(=O)N1CCC(N2CC(c3cc(C#N)c4c(c3)Nc3nccc(N5CCOCC5)c3[C@@H](C)O4)C2)C1 (mixture of isomers) [Compound 493] | 120 | 5890 | – | – | 397 | –
5 | CC#CC(=O)N1CCC(N2CC(c3cc(C#N)c4c(c3)Nc3nccc(N5CCOCC5)c3[C@H](C)O4)C2)C1 (mixture of isomers) [Compound 494] | 4070 | > 10000 | – | – | 3.14 | –
6 | C=CC(=O)N1CC[C@H]2CN(c3ccc4c(c3)Nc3nccc(N5CCOCC5)c3CO4)CC[C@@H]21 (racemic) [Compound 48] | 1620 | > 10000 | – | – | – | Ki [3, 7]: 0.325 µM; kinact [3, 8]: 4.98e-05 s⁻¹; kinact/KI [3, 9]: 153 M⁻¹ s⁻¹
7 | C#CCCN(C)C/C=C/C(=O)N1CC(N2CCC(c3ccc4c(c3)Nc3nccc(N5CCOCC5)c3C(C)O4)CC2)C1 (racemic) [Compound 143] | 123 | > 10000 | 0.0404 | 6.96e-05 | 1720 | –
8 | C=CC(=O)N1CC[C@@H](N2CC(c3cc(C)c4c(c3)Nc3nccc(C5CCOCC5)c3CO4)C2)[C@H](F)C1 (racemic) [Compound 206] | 93.3 | > 10000 | 0.0443 | 4.45e-05 | 1000 | –
9 | C=CC(=O)N1CC(N2CC[C@@H](c3ccc4c(c3)Nc3nccc(N5CCOCC5)c3CO4)[C@H](O)C2)C1 (racemic) [Compound 216] | 550 | > 10000 | 0.472 | 6.66e-05 | 141 | –
10 | C=CC(=O)N1CC[C@H]2CN(c3ccc4c(c3)Nc3nccc(N5CCOCC5)c3CO4)CC[C@H]21 (relative stereo) [Compound 27] | 3720 | > 10000 | – | – | – | kinact/KI [3, 9]: 28.7 M⁻¹ s⁻¹
11 | C=CC(=O)N1CC(N2CCC(c3ccc4c(c3)Nc3nccc(N5CCOC[C@@H]5C)c3CO4)CC2)C1 (single isomer, unassigned) [Compound 32] | 398 | > 10000 | – | – | – | Ki [3, 7]: 0.177 µM; kinact [3, 8]: 0.000102 s⁻¹; kinact/KI [3, 9]: 578 M⁻¹ s⁻¹
12 | C=CC(=O)N1CC[C@H](N2CCC(c3ccc4c(c3)Nc3nccc(N5CCOCC5)c3CO4)CC2)C1 (single isomer, unassigned) [Compound 38] | 158 | > 10000 | 0.0619 | 6.91e-05 | 1120 | kinact/KI [3, 9]: 744 M⁻¹ s⁻¹
13 | C=CC(=O)N1CC[C@@H](N2CCC(c3ccc4c(c3)Nc3nccc(N5CCOCC5)c3CO4)CC2)C1 (single isomer, unassigned) [Compound 44] | < 9.77 | 832 | – | – | – | kinact/KI [3, 10]: 1570 M⁻¹ s⁻¹; kinact/KI [3, 9]: 602 M⁻¹ s⁻¹
14 | C=CC(=O)N1CC(N2CC[C@H](c3ccc4c(c3)Nc3nccc(N5CCOCC5)c3CO4)C(C)(C)C2)C1 (single isomer, unassigned) [Compound 67] | 214 | > 10000 | 0.0862 | 6.48e-05 | 752 | –
15 | C=CC(=O)N1CC(N2CC[C@@H](c3ccc4c(c3)Nc3nccc(N5CCOCC5)c3CO4)C(C)(C)C2)C1 (single isomer, unassigned) [Compound 69] | 234 | > 10000 | – | – | – | kinact/KI [3, 10]: 529 M⁻¹ s⁻¹
16 | C=CC(=O)N1CC(N2CC[C@@H](c3ccc4c(c3)Nc3nccc(N5CCOCC5)c3CO4)C[C@@H]2C)C1 (single isomer, unassigned) [Compound 74] | 77.6 | > 10000 | – | – | – | kinact/KI [3, 10]: 1040 M⁻¹ s⁻¹
17 | C=CC(=O)N1CC(N2CC[C@H](c3ccc4c(c3)Nc3nccc(N5CCOCC5)c3CO4)C[C@H]2C)C1 (single isomer, unassigned) [Compound 76] | 79.4 | > 10000 | – | – | – | kinact/KI [3, 10]: 1650 M⁻¹ s⁻¹
18 | C=CC(=O)N1CC(N2CCC(c3ccc4c(c3)Nc3nccc(N5CCOCC5)c3[C@@H](C)O4)CC2)C1 (single isomer, unassigned) [Compound 89] | 60.3 | > 10000 | – | – | – | kinact/KI [3, 10]: 923 M⁻¹ s⁻¹
19 | C=CC(=O)N1CC(N2CCC(c3ccc4c(c3)Nc3nccc(N5CCOCC5)c3[C@H](C)O4)CC2)C1 (single isomer, unassigned) [Compound 92] | 126 | > 10000 | 0.0777 | 4.72e-05 | 622 | –
20 | C=CC(=O)N1CC(N2CCC[C@H](c3ccc4c(c3)Nc3nccc(N5CCOCC5)c3CO4)C2)C1 (single isomer, unassigned) [Compound 93] | 447 | > 10000 | 0.0862 | 5.07e-05 | 589 | –
21 | C=CC(=O)N1CC(N2CCC(c3ccc4c(c3)Nc3nccc(C5CCOCC5)c3[C@@H](C)O4)CC2)C1 (single isomer, unassigned) [Compound 97] | 66.1 | > 10000 | 0.0627 | 0.00011 | 1760 | kinact/KI [3, 10]: 1510 M⁻¹ s⁻¹
22 | C=CC(=O)N1CC(N2CCC(c3ccc4c(c3)Nc3nccc(C5CCOCC5)c3[C@H](C)O4)CC2)C1 (single isomer, unassigned) [Compound 98] | 1260 | > 10000 | 0.39 | 5.61e-05 | 144 | –
23 | C=CC(=O)N1CC(N2CCC(c3ccc4c(c3)Nc3nccc(C5CCOCC5)c3[C@H](C)O4)CC2)C1 (single isomer, unassigned) [Compound 104] | 1170 | > 10000 | 0.431 | 4.85e-05 | 112 | –
24 | C=CC(=O)N1CC(N2CC[C@H](c3ccc4c(c3)Nc3nccc(N5CCOCC5)c3CO4)[C@@H](F)C2)C1 (single isomer, unassigned) [Compound 109] | – | – | – | – | – | CDK7_A549 Wild-type CDK7 (pIC50) ([1]; A549 cells): 5.55; CDK7_A549 mutant hCDK7(pIC50) ([2]; A549 cells overexpressing CDK7-mutant (C312S)): <5; CDK7 (20 nM enz.) (kinact, s^−1) ([3]; 20 nM enzyme): 1.425e-05 s⁻¹; CDK7 (20 nM enz.) (kinact/KI, M^−1*s^−1) ([3]; 20 nM enzyme): 5.9 M⁻¹ s⁻¹; Ki ([3]; read-out: CDK7 (20 nM enz.) (KI), 20 nM enzyme): 2.42 µM
25 | C=CC(=O)N1CC(N2CCC(c3ccc4c(c3)Nc3nccc(-c5cnn(C)c5)c3[C@@H](C)O4)CC2)C1 (single isomer, unassigned) [Compound 127] | 27.5 | 8320 | – | – | – | kinact/KI [3, 10]: 1420 M⁻¹ s⁻¹

Source: US20240254138A1, “TRICYCLIC PYRIMIDINES AS CYCLIN-DEPENDENT KINASE 7 (CDK7) INHIBITORS” (JANSSEN PHARMACEUTICA NV, priority 2021, published 2024)
